In patent US8580786B2, “Triazine derivatives and their therapeutical applications” (Nant Holdings IP, LLC, priority 2006, dated 2013):

Tested on: MX-1 (human breast carcinoma) cells
Test: Cytotoxicity assay (Promega CellTiter Blue Cell Viability Assay), in vitro growth inhibition
Type: cell-based
Conditions: MX1, MX-1 cells, 72 hrs exposure to compound, CellTiter Blue fluorescence readout, read-out: IC50 (μM), cytotoxicity of triazine derivatives
Protocol: A cytotoxicity assay was quantitated using the Promega CellTiter Blue Cell Viability Assay. Briefly, cells (5000 cells/well) were plated onto 96-well microtiter plates in RPMI 1640 medium supplemented with 10% FBS and incubated at 37° C. in a humidified 5% CO2 atmosphere. After 24 hrs., cells were exposed to various concentrations of compound in DMSO and cultured for another 72 hrs. 100 ul of media were removed and 20 ul of Promega CellTiter Blue reagent were added to each well and shaken to mix. After 4 hours of incubation at 37° C. in a humidified 5% CO2 atmosphere, the plates were read at 544 ex/620 em. The fluorescence produced is proportional to the number of viable cells. After plotting fluorescence produced against drug concentration, the IC50 was calculated as the […] of the resulting non-linear regression.

`Cc1nc(Nc2ccc(Oc3ccc(Cl)cc3)cc2)nc(N2CCN(CCO)CC2)n1` [Compound 10] was tested. Which IC50 did it give?
Its IC50 is 14.1 µM.

`Cc1cccc(Cl)c1NC(=O)c1cnc(Nc2nc(Cl)nc(N3CCN(CCO)CC3)n2)s1` [Compound 13] was tested. Which IC50 did it give?
The IC50 was 171 µM.

Which IC50 does the source give for `Cc1nc(Cl)nc(Nc2ccc(Oc3ccc(Cl)cc3)cc2)n1` [Compound 9] here?
Its IC50 is 19.1 µM.

How did the IC50 turn out when `Cc1nc(Cl)nc(Nc2ncc(C(=O)Nc3c(C)cccc3Cl)s2)n1` [Compound 4] was run?
Its IC50 is 12.2 µM.

`Cc1nc(Nc2ccc(Oc3ccc(Cl)cc3)cc2)nc(N2CCN(c3ccncc3)CC2)n1` [Compound 11] was tested. Which IC50 did it give?
Its IC50 is 1.4 µM.

`Cc1nc(Nc2ncc(C(=O)Nc3c(C)cccc3Cl)s2)nc(N2CCOCC2)n1` [Compound 8] was tested. Which IC50 did it give?
Its IC50 is 58.1 µM.

For `Cc1cccc(Cl)c1NC(=O)c1cnc(Nc2nc(N3CCN(c4ccncc4)CC3)nc(N3CCN(c4ccncc4)CC3)n2)s1` [Compound 14], which IC50 is on record?
Its IC50 is 131 µM.

`Cc1cccc(Cl)c1NC(=O)c1cnc(Nc2nc(Cl)nc(Nc3cnc(C(=O)Nc4c(C)cccc4Cl)s3)n2)s1` [Compound 12] was tested. Which IC50 did it give?
Its IC50 is 237 µM.

With `Cc1nc(Nc2ncc(C(=O)Nc3c(C)cccc3Cl)s2)nc(N2CCN(c3ccncc3)CC2)n1` [Compound 6] as the molecule, how does the IC50 read?
Its IC50 is 2.6 µM.

For `Cc1nc(Nc2ncc(C(=O)Nc3c(C)cccc3Cl)s2)nc(N2CCN(CCO)CC2)n1` [Compound 5], which IC50 is on record?
The IC50 was 16 µM.

`Cc1nc(Nc2ncc(C(=O)Nc3c(C)cccc3Cl)s2)nc(N2CCN(C)CC2)n1` [Compound 7] was tested. Which IC50 did it give?
Its IC50 is 38.7 µM.
